Measured values published in patent US11878970B2, “Allosteric chromenone inhibitors of phosphoinositide 3-kinase (PI3K) for the treatment of disease” (Petra Pharma Corporation, priority 2021, dated 2024).

Experiments:
[1] = target: T1, PI3K-α (PIK3CA) wild-type (WT), p110α/p85α complex (Homo sapiens, UniProt P42336); assay: PI3K-alpha kinase (PIK3CA) biochemical activity, ADP-Glo, wild-type; settings: Soy PI lipid substrate
T1 construct: Recombinant, catalytically active human full length PIK3KA Wild-type and H1047R mutant; 6×His (N); purchased EMD Millipore Sigma 14-602M
Description: (§1) PI3K-Alpha Kinase (PIK3CA) Activity, Wild-Type and H1047R Mutant and Determining IC50 Values for Inhibitors
(§2) Recombinant, catalytically active human full length PIK3KA Wild-type and H1047R mutant were purchased as 1:1 complex of N-terminal 6×his tagged p110α (catalytic) and untagged p85α (regulatory subunit) from EMD Millipore Sigma (cat. no. 14-602M and 14-792M, respectively). PIP2diC8 (Avanti Polar Lipids Inc., cat. no. 850185) or Soy PI (Avanti Polar Lipids Inc., cat. No. 840044P) was used as lipid substrate. PIP2diC8 or PI lyophilized powder was dissolved in milliQ water to a concentration of 1 mM just before use. 10 mM stock compounds in DMSO were serially diluted 1:3 to generate a 10-point curve and plated using an acoustic liquid handler system (Echo 550 series instrument, Labcyte). A 10× intermediate compound plate (200 uM starting compound concentration and 10% DMSO) was prepared before starting the reaction. A typical reaction mixture (50 uL) comprised 40 mM HEPES buffer, pH 7.4, 25 mM MgCl2, 0.01% v/v triton-X-100, 1% v/v DMSO, 20 mM NaCl, 1-5 nM WT or H1047R PI3K protein, 20 uM ATP, and 50 uM PIP2diC8 or Soy PI. 1% DMSO buffer alone without test compound was employed as MAX control (full activity in the absence of any inhibitor), and no enzyme control was used to determine the level of background Adenosine 5′-diphosphate (ADP) (MIN control). First, Wild-type (WT) and H1047R mutant protein in kinase buffer with all components except ATP were incubated with or without compound at 27° C. for 1 h. After the pre-incubation, the reaction was initiated by the addition of 20 uL of 50 uM ATP (20 uM final concentration). The reaction was allowed to proceed until about 10% conversion of ATP (2 uM ADP) at 27° C. After that time, 5 uL of reaction was mixed with 5 uL of ADP-Kinase Glo Reagent (ADP-Glo Kinase assay kit, Promega cat. no. V9102) supplemented with MgCl2 10 mM to stop the reaction and deplete the remaining ATP for 40 min at room temperature. Then, 10 uL of Kinase Detection Reagent (ADP-Glo Kinase assay kit, Promega cat. no. V9102) was added to simultaneously convert ADP to ATP and allow the newly synthesized ATP to be measured using a luciferase/luciferin reaction. After 30 min at room temperature the light generated was measured using a luminometer (EnVision plate reader, Perkin Elmer). Process data through Genedata-Screener tool. Relative IC50 values are determined using luminescence units by calculating percent inhibition with respect to on-plate “MIN” and “MAX” controls. Data was analyzed using a 4-parameter nonlinear logistic equation (four-parameter logistic concentration-response curve): Y=bot+[(top−bot)/1+(x/IC50)slope] where Y=% inhibition, X=concentration yielding y % inhibition, Bottom=minimum value of y attained by curve, Top=maximum value of y attained by curve and Slope=steepness of curve at IC50. % Inh=[(median Max−x/median Max−median Min)]·100 IC50: concentration of compound that reduces a given response (ligand binding, enzyme response) by 50%. IC50 relative: concentration giving half the compound's maximum response.

[2] = target: T2, PI3K-α (PIK3CA) H1047R mutant, p110α/p85α complex (Homo sapiens, UniProt P42336, H1047R); assay: PI3K-alpha kinase (PIK3CA) biochemical activity, ADP-Glo, H1047R mutant; settings: Soy PI lipid substrate
T2 construct: Recombinant, catalytically active human full length PIK3KA Wild-type and H1047R mutant; 6×His (N); purchased EMD Millipore Sigma 14-792M
Description: as §1, §2

T2 sequence (P42336 whole entry H1047R): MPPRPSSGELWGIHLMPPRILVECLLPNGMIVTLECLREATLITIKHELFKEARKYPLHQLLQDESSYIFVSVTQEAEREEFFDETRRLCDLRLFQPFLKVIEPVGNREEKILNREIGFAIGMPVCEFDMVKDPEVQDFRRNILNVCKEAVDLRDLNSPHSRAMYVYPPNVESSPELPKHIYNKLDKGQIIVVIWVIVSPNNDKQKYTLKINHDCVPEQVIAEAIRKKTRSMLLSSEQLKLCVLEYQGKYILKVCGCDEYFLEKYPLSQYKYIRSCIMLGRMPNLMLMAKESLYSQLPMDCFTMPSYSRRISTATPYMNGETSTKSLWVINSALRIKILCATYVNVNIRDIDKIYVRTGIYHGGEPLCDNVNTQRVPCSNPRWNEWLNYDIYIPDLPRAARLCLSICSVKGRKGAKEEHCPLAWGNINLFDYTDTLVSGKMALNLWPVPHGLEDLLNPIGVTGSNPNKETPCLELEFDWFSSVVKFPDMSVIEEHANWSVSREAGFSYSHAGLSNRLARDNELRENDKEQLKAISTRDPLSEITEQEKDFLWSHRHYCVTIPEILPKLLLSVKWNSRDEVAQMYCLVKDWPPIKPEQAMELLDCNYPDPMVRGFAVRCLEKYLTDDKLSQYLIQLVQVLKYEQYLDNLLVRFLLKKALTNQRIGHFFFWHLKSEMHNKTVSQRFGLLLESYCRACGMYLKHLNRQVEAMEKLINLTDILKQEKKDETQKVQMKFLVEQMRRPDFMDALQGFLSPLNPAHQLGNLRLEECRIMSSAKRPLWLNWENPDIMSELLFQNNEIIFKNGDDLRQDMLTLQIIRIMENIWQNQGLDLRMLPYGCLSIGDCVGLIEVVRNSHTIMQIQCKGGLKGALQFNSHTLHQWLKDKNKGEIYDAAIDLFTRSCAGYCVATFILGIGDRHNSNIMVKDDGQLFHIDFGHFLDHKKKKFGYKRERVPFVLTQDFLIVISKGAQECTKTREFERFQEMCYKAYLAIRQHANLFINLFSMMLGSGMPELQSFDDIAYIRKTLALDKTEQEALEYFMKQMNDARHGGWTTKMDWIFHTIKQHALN
T2 sequence (P27986 whole entry partner): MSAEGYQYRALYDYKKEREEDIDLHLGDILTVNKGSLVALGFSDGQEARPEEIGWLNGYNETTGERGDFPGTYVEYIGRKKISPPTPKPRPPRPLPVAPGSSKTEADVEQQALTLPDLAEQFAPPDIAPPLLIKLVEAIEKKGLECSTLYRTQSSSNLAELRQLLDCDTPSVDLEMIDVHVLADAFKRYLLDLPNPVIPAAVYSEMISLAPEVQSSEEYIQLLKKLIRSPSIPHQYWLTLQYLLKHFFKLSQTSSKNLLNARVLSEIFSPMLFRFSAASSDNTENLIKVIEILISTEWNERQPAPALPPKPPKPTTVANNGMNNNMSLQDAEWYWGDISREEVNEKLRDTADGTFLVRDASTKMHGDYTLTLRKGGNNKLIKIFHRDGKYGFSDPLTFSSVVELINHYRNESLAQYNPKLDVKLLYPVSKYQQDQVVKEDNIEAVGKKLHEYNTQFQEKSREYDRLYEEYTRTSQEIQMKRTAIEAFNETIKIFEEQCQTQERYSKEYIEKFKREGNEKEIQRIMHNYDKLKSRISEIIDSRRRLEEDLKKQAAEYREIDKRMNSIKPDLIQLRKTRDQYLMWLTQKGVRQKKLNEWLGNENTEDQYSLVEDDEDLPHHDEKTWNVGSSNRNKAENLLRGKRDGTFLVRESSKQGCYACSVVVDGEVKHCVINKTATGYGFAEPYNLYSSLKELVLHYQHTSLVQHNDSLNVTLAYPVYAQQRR

In the case of `Cc1cc(C(C)Nc2ccccc2C(=O)O)c2oc(-c3ccc4c(cnn4C)n3)cc(=O)c2c1` (single isomer, unassigned) [Example 164, 2-[1-[6-Methyl-2-(1-methylpyrazolo[4,3-b]pyridin-5-yl)-4-oxo-chromen-8-yl]ethylamino]benzoic acid], the IC50 [1] is reported as 1 to 5 µM and the IC50 [2] is reported as less than 0.5 µM.

`Cc1cn2nc(-c3cc(=O)c4cc(C(F)(F)F)cc(C(C)Nc5ccccc5C(=O)O)c4o3)ccc2n1` (single isomer, unassigned) [Example 101, 2-[1-[2-(2-Methylimidazo[1,2-b]pyridazin-6-yl)-4-oxo-6-(trifluoromethyl)chromen-8-yl]ethylamino]benzoic acid] showed an IC50 [1] of 1 to 5 µM and an IC50 [2] of less than 0.5 µM.

For `Cc1cc(C(C)Nc2ccccc2C(=O)O)c2oc(-c3c4ccccc4nn3C)cc(=O)c2c1` (single isomer, unassigned) [Example 119, 2-[1-[6-Methyl-2-(2-methylindazol-3-yl)-4-oxo-chromen-8-yl]ethylamino]benzoic acid], the IC50 [1] was 1 to 5 µM and the IC50 [2] was 1 to 5 µM.

In the case of `Cc1cn2cc(-c3oc4c(C(C)Nc5ccccc5C(=O)O)cc(F)cc4c(=O)c3C)ccc2n1` (single isomer, unassigned) [Example 124, 2-[1-[6-Fluoro-3-methyl-2-(2-methylimidazo[1,2-a]pyridin-6-yl)-4-oxo-chromen-8-yl]ethylamino]benzoic acid], the IC50 [1] is reported as 0.5 to 1 µM and the IC50 [2] is reported as less than 0.5 µM.

With `Cc1cc(C(C)Nc2ccccc2C(=O)O)c2oc(-c3cnn4ccccc34)cc(=O)c2c1` (centres unmarked) [Example 10, 2-[1-(6-Methyl-4-oxo-2-pyrazolo[1,5-a]pyridin-3-yl-chromen-8-yl)ethylamino]benzoic acid] the IC50 [1] was 1 to 5 µM and the IC50 [2] was less than 0.5 µM.

Compound `Cc1c(-c2ccc3nn(C)cc3c2)oc2c(C(C)Nc3ccccc3C(=O)O)cc(F)cc2c1=O` (single isomer, unassigned) [Example 148, 2-[1-[6-Fluoro-3-methyl-2-(2-methylindazol-5-yl)-4-oxo-chromen-8-yl]ethylamino]benzoic acid] has an IC50 [1] of 0.5 to 1 µM and an IC50 [2] of less than 0.5 µM.

For `Cc1cc(C(C)Nc2ccccc2C(=O)O)c2oc(-c3nn(C)c4ccccc34)cc(=O)c2c1` (centres unmarked) [Example 12, 2-[1-[6-Methyl-2-(1-methylindazol-3-yl)-4-oxo-chromen-8-yl]ethylamino]benzoic acid], the IC50 [1] was 5 to 10 µM and the IC50 [2] was less than 0.5 µM.

`Cc1cc(C(C)Nc2ccccc2C(=O)O)c2oc(-c3ccc4nn(C)cc4c3)cc(=O)c2c1` (centres unmarked) [Example 13, 2-[1-[6-Methyl-2-(2-methylindazol-5-yl)-4-oxo-chromen-8-yl]ethylamino]benzoic acid] was tested, and the IC50 [1] was less than 0.5 µM and the IC50 [2] was less than 0.5 µM.

In the case of `Cc1cc(C(C)Nc2ccccc2C(=O)O)c2oc(-c3nccc4cnn(C)c34)cc(=O)c2c1` (single isomer, unassigned) [Example 96, 2-[1-[6-Methyl-2-(1-methylpyrazolo[3,4-c]pyridin-7-yl)-4-oxo-chromen-8-yl]ethylamino]benzoic acid], the IC50 [1] is reported as 5 to 10 µM and the IC50 [2] is reported as 1 to 5 µM.

`Cc1cc(C(C)Nc2ccccc2C(=O)O)c2oc(-c3ccc4c(cnn4C)n3)c(C)c(=O)c2c1` (single isomer, unassigned) [Example 131, 2-[1-[3,6-Dimethyl-2-(1-methylpyrazolo[4,3-b]pyridin-5-yl)-4-oxo-chromen-8-yl]ethylamino]benzoic acid] showed an IC50 [1] of 1 to 5 µM and an IC50 [2] of less than 0.5 µM.

`Cc1cc(C(C)Nc2ccccc2C(=O)O)c2oc(-c3ccc4ccn(C)c4n3)cc(=O)c2c1` (single isomer, unassigned) [Example 159, 2-[1-[6-Methyl-2-(1-methylpyrrolo[2,3-b]pyridin-6-yl)-4-oxo-chromen-8-yl]ethylamino]benzoic acid] was tested, and the IC50 [1] was 1 to 5 µM and the IC50 [2] was less than 0.5 µM.

For `Cc1cc(C(C)Nc2ccc(Cl)c(F)c2C(=O)O)c2oc(-c3ccc4nc(C)cn4c3)cc(=O)c2c1` (single isomer, unassigned) [Example 183, 3-chloro-2-fluoro-6-[1-[6-methyl-2-(2-methylimidazo[1,2-a]pyridin-6-yl)-4-oxo-chromen-8-yl]ethylamino]benzoic acid], the IC50 [1] was 0.5 to 1 µM and the IC50 [2] was less than 0.5 µM.

`Cc1cc(C(C)Nc2ccccc2C(=O)O)c2oc(-c3ccc4nc(C)cn4c3)cc(=O)c2c1` (centres unmarked) [Example 16, 2-[1-[6-Methyl-2-(2-methylimidazo[1,2-a]pyridin-6-yl)-4-oxo-chromen-8-yl]ethylamino]benzoic acid] gave an IC50 [1] of 1 to 5 µM and an IC50 [2] of less than 0.5 µM.

Compound `Cc1nc2ccc(-c3cc(=O)c4cc(C(F)(F)F)cc(C(C)Nc5ccc(Cl)nc5C(=O)O)c4o3)cc2s1` (single isomer, unassigned) [Example 167, 6-Chloro-3-[1-[2-(2-methyl-1,3-benzothiazol-6-yl)-4-oxo-6-(trifluoromethyl)chromen-8-yl]ethylamino]pyridine-2-carboxylic acid] has an IC50 [1] of 1 to 5 µM and an IC50 [2] of less than 0.5 µM.

For `Cc1cc(C(C)Nc2ccccc2C(=O)O)c2oc(-c3ccc4cnncc4c3)cc(=O)c2c1` (single isomer, unassigned) [Example 47, 2-[1-(6-Methyl-4-oxo-2-phthalazin-6-yl-chromen-8-yl)ethylamino]benzoic acid], the IC50 [1] was 1 to 5 µM and the IC50 [2] was less than 0.5 µM.

`CC(Nc1ccc(Cl)nc1C(=O)O)c1cc(C(F)(F)F)cc2c(=O)cc(-c3cc(Cl)c4nn(C)cc4c3)oc12` (single isomer, unassigned) [Example 194, 6-Chloro-3-[1-[2-(7-chloro-2-methyl-indazol-5-yl)-4-oxo-6-(trifluoromethyl)chromen-8-yl]ethylamino]pyridine-2-carboxylic acid] was tested, and the IC50 [1] was 0.5 to 1 µM and the IC50 [2] was 0.5 to 1 µM.

Compound `Cc1cc(C(C)Nc2ccccc2C(=O)O)c2oc(-c3ccc4c(C)n[nH]c4c3)cc(=O)c2c1` (single isomer, unassigned) [Example 28, 2-[1-[6-Methyl-2-(3-methyl-1H-indazol-6-yl)-4-oxo-chromen-8-yl]ethylamino]benzoic acid] has an IC50 [1] of 1 to 5 µM and an IC50 [2] of less than 0.5 µM.

Work on `Cc1cc(C(C)Nc2ccccc2C(=O)O)c2oc(-c3ccc4c(C#N)nn(C)c4c3)cc(=O)c2c1` (single isomer, unassigned) [Example 104, 2-[1-[2-(3-Cyano-1-methyl-indazol-6-yl)-6-methyl-4-oxo-chromen-8-yl]ethylamino]benzoic acid] yielded an IC50 [1] of 1 to 5 µM and an IC50 [2] of less than 0.5 µM.

In the case of `Cc1cc(C(C)Nc2ccccc2C(=O)O)c2oc(-c3ccc4c(c3)CN(C)C4=O)c(C)c(=O)c2c1` (single isomer, unassigned) [Example 137, 2-[1-[3,6-Dimethyl-2-(2-methyl-1-oxo-isoindolin-5-yl)-4-oxo-chromen-8-yl]ethylamino]benzoic acid], the IC50 [1] is reported as 1 to 5 µM and the IC50 [2] is reported as less than 0.5 µM.

`Cc1cc(C(C)Nc2cccc(F)c2C(=O)O)c2oc(-c3ccc4nn(C)cc4c3)cc(=O)c2c1` (single isomer, unassigned) [Example 172, 2-Fluoro-6-[1-[6-methyl-2-(2-methylindazol-5-yl)-4-oxo-chromen-8-yl]ethylamino]benzoic acid] was tested, and the IC50 [1] was less than 0.5 µM and the IC50 [2] was less than 0.5 µM.

`Cc1cc(C(C)Nc2ccccc2C(=O)O)c2oc(-c3cnc4cn(C)nc4c3)cc(=O)c2c1` (single isomer, unassigned) [Example 43, 2-[1-[6-Methyl-2-(2-methylpyrazolo[4,3-b]pyridin-6-yl)-4-oxo-chromen-8-yl]ethylamino]benzoic acid] gave an IC50 [1] greater than 10 µM and an IC50 [2] greater than 10 µM.

Work on `Cc1cc(C(C)Nc2ccccc2C(=O)O)c2oc(-c3ccc4nnc(C(C)C)n4c3)cc(=O)c2c1` (single isomer, unassigned) [Example 78, 2-[1-[2-(3-Isopropyl-[1,2,4]triazolo[4,3-a]pyridin-6-yl)-6-methyl-4-oxo-chromen-8-yl]ethylamino]benzoic acid] yielded an IC50 [1] greater than 10 µM and an IC50 [2] of 1 to 5 µM.
